Experimental findings from patent US9624170B2, “4-(piperrazin-1-yl)-pyrrolidin-2-one compounds as monoacylglycerol lipase (MAGL) inhibitors” (TAKEDA PHARMACEUTICAL COMPANY LIMITED, priority 2013, dated 2017) are described below.

By inhibition is commonly meant the drop in the measured response relative to a control, in per cent.

One assay concerns the target T1, human MAGL (His-hMAGL) (Homo sapiens, UniProt Q99685).
T1 construct: made in house; host or cells: Escherichia coli BL21(DE3)
T1 sequence (Q99685 1-303): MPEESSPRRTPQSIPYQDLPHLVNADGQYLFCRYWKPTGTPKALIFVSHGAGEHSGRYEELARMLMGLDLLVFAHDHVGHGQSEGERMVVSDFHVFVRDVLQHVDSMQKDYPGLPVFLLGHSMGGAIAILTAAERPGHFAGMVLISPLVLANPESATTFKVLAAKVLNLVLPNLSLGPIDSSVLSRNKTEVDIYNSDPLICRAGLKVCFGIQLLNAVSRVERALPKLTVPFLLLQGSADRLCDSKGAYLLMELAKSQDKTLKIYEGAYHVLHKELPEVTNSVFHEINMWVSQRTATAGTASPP
Nature of the assay: Measurement of MAGL inhibitory activity by mass spectrometry. The assay is classed as biochemical. The settings on record: 10 μM test compound; substrate 2-arachidonylglycerol, arachidonic acid by RapidFire-mass spectrometry. How it is done:
Thereafter, to each well was added 150 μM 2-arachidonylglycerol (Tocris Bioscience) by 5 μL, and the mixture was incubated at room temperature for 10 min. Then, 2% formic acid (Wako Pure Chemical Industries, Ltd.) was added by 10 μL to discontinue the reaction. Furthermore, acetonitrile (50 μL) containing 3 μM arachidonic acid-d8 (Cayman Chemical Company) was added and the mixture was stirred. The amount of arachidonic acid in the obtained enzyme reaction mixture was calculated by measuring by RapidFire-mass spectrometry and correcting by the amount of arachidonic acid-d8. High Throughput online solid phase extraction was performed using RapidFire 300TM system (Agilent Technologies, Inc.). […] The injection needle was washed with ultrapure water (500 millisecond) and acetonitrile (500 millisecond) to minimize carry-over. […] The RapidFire300 system was controlled by RapidFire UI software version 3.6 (Agilent Technologies, Inc.). The mass spectrometry of the resultant product was performed using […] triple quadrupole mass spectrometer (AB SCIEX) equipped with an electrospray ion sauce (Turbolon SprayTM) in a negative selected reaction monitoring (SRM) mode. The conditions of SRM are shown below. The parameters of the instrument were optimized as follows: capillary temperature 600° C., ion spray voltage -4.5 kV, collision gas 8, curtain gas 15 psi, ion source gas 1 60 psi, ion source gas 2 60 psi. The mass spectrometer was controlled by AnalystTM software version 1.5.1 (AB SCIEX). The peak area integration was analyzed using RapidFire integrator software version 3.6 (Agilent Technologies, Inc.). MAGL inhibitory rate (%) was calculated according to the following calculation formula.
In the case of `Cc1ccnc(-c2cccc(N3CC(N4CCN(C(=O)c5nccs5)CC4)CC3=O)c2)c1` (stereo not shown) [Example 152, 1-(3-(4-rnethylpyridin-2-yl)phenyl)-4-(4-(1,3-thiazol-2-ylcarbonyl)piperazin-1-yl)pyrrolidin-2-one], the inhibition at 10 µM is 99%. The same measure, in the same setting: under `Cc1cccc(C#N)c1-c1cccc(N2CC(N3CCN(C(=O)c4nccs4)CC3)CC2=O)c1` (stereo not shown) [Example 154, 6-methyl-3′-(2-oxo-4-(4-(1,3-thiazol-2-ylcarbonyl)piperazin-1-yl)pyrrolidin-1-yl)biphenyl-2-carbonitrile] stands 101%; under `Cc1noc(C)c1-c1cccc(N2CC(N3CCN(C(=O)c4nccs4)CC3)CC2=O)c1` (stereo not shown) [Example 155, 1-(3-(3,5-dimethyl-1,2-oxazol-4-yl)phenyl)-4-(4-(1,3-thiazol-2-ylcarbonyl)piperazin-1-yl)pyrrolidin-2-one], 99%. Consider `CCn1nccc1-c1cccc(N2CC(N3CCN(C(=O)c4nccs4)CC3)CC2=O)c1` (stereo not shown) [Example 156, 1-(3-(1-ethyl-1H-pyrazol-5-yl)phenyl)-4-(4-(1,3-thiazol-2-ylcarbonyl)piperazin-1-yl)pyrrolidin-2-one], for which the inhibition at 10 µM worked out at 100%. Regarding `Cc1cc(-c2cccc(N3CC(N4CCN(C(=O)c5nccs5)CC4)CC3=O)c2)n(C)n1` (stereo not shown) [Example 157, 1-(3-(1,3-dimethyl-1H-pyrazol-5-yl)phenyl)-4-(4-(1,3-thiazol-2-ylcarbonyl)piperazin-1-yl)pyrrolidin-2-one], the inhibition at 10 µM was determined as 99%. Same read-out and setting: with `Cn1nc(C(F)(F)F)cc1-c1cccc(N2CC(N3CCN(C(=O)c4nccs4)CC3)CC2=O)c1` (stereo not shown) [Example 158, 1-(3-(1-methyl-3-(trifluoromethyl)-1H-pyrazol-5-yl)phenyl)-4-(4-(1,3-thiazol-2-ylcarbonyl)piperazin-1-yl)pyrrolidin-2-one] the figure was 99%; with `O=C(c1nccs1)N1CCN(C2CC(=O)N(c3ccccc3)C2)CC1` (stereo not shown) [Example 160, 1-phenyl-4-(4-(1,3-thiazol-2-ylcarbonyl)piperazin-1-yl)pyrrolidin-2-one], 91%. With `Cc1nc(C)c(-c2cccc(N3CC(N4CCN(C(=O)c5nccs5)CC4)CC3=O)c2)s1` (stereo not shown) [Example 161, 1-(3-(2,4-dimethyl-1,3-thiazol-5-yl)phenyl)-4-(4-(1,3-thiazol-2-ylcarbonyl)piperazin-1-yl)pyrrolidin-2-one], the inhibition at 10 µM worked out at 100%. Still for that read-out and setting: under `Cc1ccsc1-c1cccc(N2CC(N3CCN(C(=O)c4nccs4)CC3)CC2=O)c1` (stereo not shown) [Example 162, 1-(3-(3-methyl-2-thienyl)phenyl)-4-(4-(1,3-thiazol-2-ylcarbonyl)piperazin-1-yl)pyrrolidin-2-one] stands 99%. Still for that read-out and setting: with `O=C(c1nccs1)N1CCN(C2CC(=O)N(c3cccc(-c4ncccc4C(F)(F)F)c3)C2)CC1` (stereo not shown) [Example 165, 4-(4-(1,3-thiazol-2-ylcarbonyl)piperazin-1-yl)-1-(3-(3-(trifluoromethyl)pyridin-2-yl)phenyl)pyrrolidin-2-one] the figure was 100%.

In the case of `O=C(c1ncco1)N1CCN(C2CC(=O)N(c3cccc(-c4ccccc4Cl)c3)C2)CC1` (stereo not shown) [Example 166, 1-(2′-chlorobiphenyl-3-yl)-4-(4-(1,3-oxazol-2-ylcarbonyl)piperazin-1-yl)pyrrolidin-2-one], the inhibition at 10 µM was 99%. On the same count and under the same terms, with `Cc1ncccc1-c1cccc(N2CC(N3CCN(C(=O)c4ncco4)CC3)CC2=O)c1` (stereo not shown) [Example 167, 1-(3-(2-methylpyridin-3-yl)phenyl)-4-(4-(1,3-oxazol-2-ylcarbonyl)piperazin-1-yl)pyrrolidin-2-one] the figure was 94%; with `O=C(c1cscn1)N1CCN(C2CC(=O)N(c3cccc(-c4ccccc4Cl)c3)C2)CC1` (stereo not shown) [Example 168, 1-(2′-chlorobiphenyl-3-yl)-4-(4-(1,3-thiazol-4-ylcarbonyl)piperazin-1-yl)pyrrolidin-2-one], 101%. The same measure, in the same setting: under `Cc1ncccc1-c1cccc(N2CC(N3CCN(C(=O)c4cscn4)CC3)CC2=O)c1` (stereo not shown) [Example 169, 1-(3-(2-methylpyridin-3-yl)phenyl)-4-(4-(1,3-thiazol-4-ylcarbonyl)piperazin-1-yl)pyrrolidin-2-one] stands 97%; under `O=C(c1nccs1)N1CCN(C2CC(=O)N(c3ccc(F)c(Br)c3)C2)CC1` (stereo not shown) [Example 170, 1-(3-bromo-4-fluorophenyl)-4-(4-(1,3-thiazol-2-ylcarbonyl)piperazin-1-yl)pyrrolidin-2-one], 98%; under `CC(C)n1nccc1-c1cccc(N2CC(N3CCN(C(=O)c4nccs4)CC3)CC2=O)c1` (stereo not shown) [Example 171, 1-(3-(1-isopropyl-1H-pyrazol-5-yl)phenyl)-4-(4-(1,3-thiazol-2-ylcarbonyl)piperazin-1-yl)pyrrolidin-2-one], 99%.

For the molecule `Cc1ncccc1-c1cccc(N2CC(N3CCN(C(=O)c4nccs4)CC3)CC2=O)n1` (stereo not shown) [Example 174, 1-(2′-methyl-2,3′-bipyridin-6-yl)-4-(4-(1,3-thiazol-2-ylcarbonyl)piperazin-1-yl)pyrrolidin-2-one], the inhibition at 10 µM was 100%. Still for that read-out and setting: with `Cc1ccccc1-c1ccc(N2CC(N3CCN(C(=O)c4nccs4)CC3)CC2=O)cc1` (stereo not shown) [Example 176, 1-(2′-methylbiphenyl-4-yl)-4-(4-(1,3-thiazol-2-ylcarbonyl)piperazin-1-yl)pyrrolidin-2-one] the figure was 100%. Still for that read-out and setting: with `Cc1ccncc1-c1ccc(N2CC(N3CCN(C(=O)c4nccs4)CC3)CC2=O)cc1` (stereo not shown) [Example 177, 1-(4-(4-methylpyridin-3-yl)phenyl)-4-(4-(1,3-thiazol-2-ylcarbonyl)piperazin-1-yl)pyrrolidin-2-one] the figure was 80%; with `Cc1cnccc1-c1ccc(N2CC(N3CCN(C(=O)c4nccs4)CC3)CC2=O)cc1` (stereo not shown) [Example 178, 1-(4-(3-methylpyridin-4-yl)phenyl)-4-(4-(1,3-thiazol-2-ylcarbonyl)piperazin-1-yl)pyrrolidin-2-one], 81%.

The same assay, now with this note: MAGL inhibitory rate, test compound 10 μM, His-hMAGL, substrate 2-arachidonylglycerol, RapidFire-mass spectrometry.
With `O=C(c1nccs1)N1CCN(C2CC(=O)N(c3ccc(-c4ccccc4F)cc3)C2)CC1` (stereo not shown) [Example 179, 1-(2′-fluorobiphenyl-4-yl)-4-(4-(1,3-thiazol-2-ylcarbonyl)piperazin-1-yl)pyrrolidin-2-one], the inhibition at 10 µM amounted to 98%. The same measure, in the same setting: under `Cc1cc(-c2ccc(N3CC(N4CCN(C(=O)c5nccs5)CC4)CC3=O)cc2)n(C)n1` (stereo not shown) [Example 180, 1-(4-(1,3-dimethyl-1H-pyrazol-5-yl)phenyl)-4-(4-(1,3-thiazol-2-ylcarbonyl)piperazin-1-yl)pyrrolidin-2-one] stands 94%; under `Cc1nn(C)cc1-c1ccc(N2CC(N3CCN(C(=O)c4nccs4)CC3)CC2=O)cc1` (stereo not shown) [Example 181, 1-(4-(1,3-dimethyl-1H-pyrazol-4-yl)phenyl)-4-(4-(1,3-thiazol-2-ylcarbonyl)piperazin-1-yl)pyrrolidin-2-one], 94%. On the same count and under the same terms, under `Cc1c(-c2ccc(N3CC(N4CCN(C(=O)c5nccs5)CC4)CC3=O)cc2)cnn1C` (stereo not shown) [Example 182, 1-(4-(1,5-dimethyl-1H-pyrazol-4-yl)phenyl)-4-(4-(1,3-thiazol-2-ylcarbonyl)piperazin-1-yl)pyrrolidin-2-one] stands 92%. On the same count and under the same terms, under `O=C(c1nccs1)N1CCN(C2CC(=O)N(c3ccc(-c4ccoc4)cc3)C2)CC1` (stereo not shown) [Example 184, 1-(4-(3-furyl)phenyl)-4-(4-(1,3-thiazol-2-ylcarbonyl)piperazin-1-yl)pyrrolidin-2-one] stands 98%; under `N#Cc1cccc(-c2ccc(N3CC(N4CCN(C(=O)c5nccs5)CC4)CC3=O)cc2)c1` (stereo not shown) [Example 185, 4′-(2-oxo-4-(4-(1,3-thiazol-2-ylcarbonyl)piperazin-1-yl)pyrrolidin-1-yl)biphenyl-3-carbonitrile], 100%; under `O=C(c1nccs1)N1CCN(C2CC(=O)N(c3ccc(-c4cccc(CO)c4)cc3)C2)CC1` (stereo not shown) [Example 187, 1-(3′-(hydroxymethyl)biphenyl-4-yl)-4-(4-(1,3-thiazol-2-ylcarbonyl)piperazin-1-yl)pyrrolidin-2-one], 96%. Take `O=C(c1nccs1)N1CCN(C2CC(=O)N(c3ccc(-c4ccccc4Cl)cc3)C2)CC1` (stereo not shown) [Example 188, 1-(2′-chlorobiphenyl-4-yl)-4-(4-(1,3-thiazol-2-ylcarbonyl)piperazin-1-yl)pyrrolidin-2-one]: the inhibition at 10 µM worked out at 99%.
